In patent US20110124501A1, “Active compound combinations” (Bayer CropScience AG, priority 2009, published 2011):
Where “and” joins values, the source holds several entries; their conditions need not be identical. Identical values can stand only once. Counter-ions that a name gives are not always drawn. Like-named read-outs stand apart in the source and are kept apart here.

Tests used:
Leptosphaeria nodorum = Leptosphaeria nodorum test (wheat)/preventive; assay type: in vivo; conditions: preventive, evaluated 8 days after inoculation
Septoria tritici = experiment: Septoria tritici-test (wheat)/preventive; assay type: in vivo; conditions: preventive, evaluated 21 days after inoculation
Phytophthora infestans = assay type: in vivo
Botrytis cinerea = experiment: Botrytis test (beans)/preventive
Experimental: Botrytis Test (Beans)/Preventive
(§1) • Solvent: 24.5 parts by weight of acetone • 24.5 parts by weight of dimethylacetamide • Emulsifier: 1 part by weight of alkylaryl polyglycol ether
After the spray coating has dried on, 2 small pieces of agar covered with growth of Botrytis cinerea are placed on each leaf. The inoculated plants are placed in a darkened chamber at 20° C. and a relative atmospheric humidity of 100%.
2 days after the inoculation, the size of the lesions on the leaves is evaluated.

Sphaerotheca fuliginea = experiment: Sphaerotheca test (cucumbers)/preventive; assay type: in vivo
Venturia inaequalis = experiment: Venturia test (apples)/preventive
Experimental: Venturia Test (Apples)/Preventive
as §1
After the spray coating has dried on, the plants are inoculated with an aqueous conidia suspension of the causal agent of apple scab (Venturia inaequalis) and then remain for 1 day in an incubation cabinet at approximately 20° C. and a relative atmospheric humidity of 100%.
The plants are then placed in a greenhouse at approximately 21° C. and a relative atmospheric humidity of approximately 90%.
The test is evaluated 10 days after the inoculation.

Alternaria solani = experiment: Alternaria test (tomatoes)/preventive; assay type: in vivo
Pyrenophora teres = experiment: Pyrenophora teres-test (barley)/preventive; assay type: in vivo; conditions: preventive, evaluated 8 days after inoculation
[1] = system: Blumeria graminis fsp. hordei; experiment: Blumeria test (barley)/preventive; assay type: in vivo
Source text: After the spray coating has been dried, the plants are dusted with spores of Blumeria graminis fsp. hordei.

Plasmopara viticola = experiment: Plasmopara test (grapevines)/preventive; assay type: in vivo
Puccinia triticina = experiment: Puccinia triticina-test (wheat)/preventive; assay type: in vivo; conditions: preventive, evaluated 8 days after inoculation

Molecule: Fc1ccc([C@]2(Cn3cncn3)O[C@H]2c2ccccc2Cl)cc1 (racemic) [(1.12), epoxiconazole]
- Efficacy in % found (Leptosphaeria nodorum; 31.25 ppm a.i.): 71%
- Efficacy in % found (Septoria tritici; 62.5 ppm a.i.): 71%

Molecule: C[C@@]1(c2ccc(Oc3ccccc3)cc2)OC(=O)N(Nc2ccccc2)C1=O (racemic) [(3.6), famoxadone]
- Efficacy in % found (Phytophthora infestans; application rate 0.4 ppm a.i.): 0%

Molecule: CC1(C(=O)Nc2ccc(O)c(Cl)c2Cl)CCCCC1 [(1.16), fenhexamid]
- Efficacy in % found (Botrytis cinerea; application rate 10 ppm a.i.): 0%

Molecule: O=c1c2cc(F)ccc2nc(-n2cncn2)n1-c1ccc(Cl)cc1Cl [(1.19), fluquinconazole]
- Efficacy in % found (Sphaerotheca fuliginea; application rate 1 ppm a.i.): 78%
- Efficacy in % found (Leptosphaeria nodorum; 31.25 ppm a.i.): 43%
- Efficacy in % found (Septoria tritici; 62.5 ppm a.i.): 86%

Molecule: Cn1cc(C(=O)Nc2ccc(F)cc2-c2ccc(Cl)c(Cl)c2)c(C(F)F)n1 [(2.2), bixafen]
- Efficacy in % found (Venturia inaequalis; application rate 1 ppm a.i.): 64%

Molecule: O=C(NCCc1ncc(C(F)(F)F)cc1Cl)c1ccccc1C(F)(F)F [(2.6), fluopyram]
- Efficacy in % found (Alternaria solani; application rate 1 ppm a.i.): 55%
- Efficacy in % found (Sphaerotheca fuliginea; application rate 4 ppm a.i.): 0%
- Efficacy in % found (Pyrenophora teres; 31.25 ppm a.i.): 88%
- Efficacy in % found (Septoria tritici; 31.25 ppm a.i.): 80%
- Efficacy in % found (Venturia inaequalis; application rate 2 ppm a.i.): 28%

Molecule: CC(C)C1C2CCC1c1c(NC(=O)c3cn(C)nc3C(F)F)cccc12 (stereo not drawn) [(2.10), isopyrazam]
- Efficacy in % found (Alternaria solani; application rate 0.5 ppm a.i.): 50%
- Efficacy in % found (Venturia inaequalis; application rate 1 ppm a.i.): 49%

Molecule: Cc1nn(C)c(F)c1C(=O)Nc1ccccc1C(C)CC(C)C (stereo not drawn) [(2.19), penflufen]
- Efficacy in % found (Alternaria solani; application rate 1 ppm a.i.): 30%
- Efficacy in % found (Sphaerotheca fuliginea; application rate 4 ppm a.i.): 0%
- Efficacy in % found ([1]; application rate 125 ppm a.i.): 67% and 56%
- Efficacy in % found (Venturia inaequalis; application rate 4 ppm a.i.): 0%

Molecule: CC(C)CC(C)c1sccc1NC(=O)c1cn(C)nc1C(F)(F)F (stereo not drawn) [(2.20), penthiopyrad]
- Efficacy in % found (Alternaria solani; application rate 0.5 ppm a.i.): 53%
- Efficacy in % found (Venturia inaequalis; application rate 2 ppm a.i.): 41%

Molecule: Cn1cc(C(=O)Nc2ccccc2C2CC2C2CC2)c(C(F)F)n1 (stereo not drawn) [(2.21), sedaxane]
- Efficacy in % found (Alternaria solani; application rate 1 ppm a.i.): 40%
- Efficacy in % found (Venturia inaequalis; application rate 2 ppm a.i.): 69%

Molecule: Cn1cc(C(=O)Nc2ccccc2-c2cc(F)c(F)c(F)c2)c(C(F)F)n1 [(2.45), 3-(difluoromethyl)-1-methyl-N-(3′,4′,5′-trifluorobiphenyl-2-yl)-1H-pyrazole-4-carboxamide]
- Efficacy in % found (Sphaerotheca fuliginea; application rate 2 ppm a.i.): 30%

Molecule: CO/C=C(/C(=O)OC)c1ccccc1Oc1cc(Oc2ccccc2C#N)ncn1 [(3.2), azoxystrobin]
- Efficacy in % found (Alternaria solani; application rate 0.25 ppm a.i.): 50%
- Efficacy in % found (Sphaerotheca fuliginea; application rate 1 ppm a.i.): 10%
- Efficacy in % found (Leptosphaeria nodorum; 31.25 ppm a.i.): 67%
- Efficacy in % found (Leptosphaeria nodorum; 62.5 ppm a.i.): 86%

Molecule: Cc1ccc(-c2c(Cl)nc(C#N)n2S(=O)(=O)N(C)C)cc1 [(3.3), cyazofamid]
- Efficacy in % found (Plasmopara viticola; application rate 0.4 ppm a.i.): 0%

Molecule: CSC1=N[C@@](C)(c2ccccc2)C(=O)N1Nc1ccccc1 [(3.7), fenamidone]
- Efficacy in % found (Phytophthora infestans; application rate 0.2 ppm a.i.): 0%

Molecule: CO/N=C(/C1=NOCCO1)c1ccccc1Oc1ncnc(Oc2ccccc2Cl)c1F [(3.8), fluoxastrobin]
- Efficacy in % found (Alternaria solani; application rate 2 ppm a.i.): 70%
- Efficacy in % found (Leptosphaeria nodorum; 31.25 ppm a.i.): 71%
- Efficacy in % found (Septoria tritici; 62.5 ppm a.i.): 71%
- Efficacy in % found (Venturia inaequalis; application rate 0.5 ppm a.i.): 88%

Molecule: COC(=O)N(OC)c1ccccc1COc1ccn(-c2ccc(Cl)cc2)n1 [(3.13), pyraclostrobin]
- Efficacy in % found (Sphaerotheca fuliginea; application rate 1 ppm a.i.): 0%
- Efficacy in % found (Leptosphaeria nodorum; 31.25 ppm a.i.): 57%
- Efficacy in % found (Puccinia triticina; 62.5 ppm a.i.): 63%

Molecule: CON=C(C(=O)OC)c1ccccc1CON=C(C)c1cccc(C(F)(F)F)c1 [(3.17), trifloxystrobin]
- Efficacy in % found (Alternaria solani; application rate 2 ppm a.i.): 60%
- Efficacy in % found (Sphaerotheca fuliginea; application rate 2 ppm a.i.): 27%
- Efficacy in % found (Pyrenophora teres; 62.5 ppm a.i.): 75%
- Efficacy in % found (Puccinia triticina; 62.5 ppm a.i.): 78%

Molecule: CCC(C)(NC(=O)c1cc(Cl)c(C)c(Cl)c1)C(=O)CCl (stereo not drawn) [(4.9), zoxamide]
- Efficacy in % found (Plasmopara viticola; application rate 0.4 ppm a.i.): 0%

Molecule: N#Cc1c(Cl)c(Cl)c(Cl)c(C#N)c1Cl [(5.4), chlorothalonil]
- Efficacy in % found (Alternaria solani; application rate 50 ppm a.i.): 24%
- Efficacy in % found (Venturia inaequalis; application rate 25 ppm a.i.): 83%

Molecule: O=C1c2ccccc2C(=O)N1SC(Cl)(Cl)Cl [(5.9), folpet]
- Efficacy in % found (Botrytis cinerea; application rate 12.5 ppm a.i.): 11%

Molecule: [Cl-].[Cu+2].[Cu+2].[OH-].[OH-].[OH-] [(5.15), copper oxychloride]
- Efficacy in % found (Alternaria solani; application rate 50 ppm a.i.): 41%
- Efficacy in % found (Venturia inaequalis; application rate 50 ppm a.i.): 40%

Molecule: [Cu+2].[OH-].[OH-] [(5.16), copper hydroxide]
- Efficacy in % found (Alternaria solani; application rate 50 ppm a.i.): 47%
- Efficacy in % found (Venturia inaequalis; application rate 25 ppm a.i.): 57%

Molecule: Cc1cc(C)nc(Nc2ccccc2)n1 [(7.7), pyrimethanil]
- Efficacy in % found (Botrytis cinerea; application rate 50 ppm a.i.): 11%

Molecule: COc1ccc(C(=CC(=O)N2CCOCC2)c2ccc(Cl)cc2)cc1OC [(9.2), dimethomorph]
- Efficacy in % found (Plasmopara viticola; application rate 0.2 ppm a.i.): 0%

Molecule: Cc1ccc(C(C)NC(=O)[C@@H](NC(=O)OC(C)C)C(C)C)cc1 (stereo partly drawn) [(9.4), iprovalicarb]
- Efficacy in % found (Plasmopara viticola; application rate 0.4 ppm a.i.): 0%

Molecule: C#CCOc1ccc(CCNC(=O)C(OCC#C)c2ccc(Cl)cc2)cc1OC (stereo not drawn) [(9.5), mandipropamid]
- Efficacy in % found (Plasmopara viticola; application rate 0.1 ppm a.i.): 14%
- Efficacy in % found (Plasmopara viticola; application rate 0.2 ppm a.i.): 25%

Molecule: CCCOC(=O)NCCCN(C)C [(10.11), propamocarb-hydrochloride]
- Efficacy in % found (Phytophthora infestans; application rate 10 ppm a.i.): 0%

Molecule: COC(=O)[C@@H](C)N(C(=O)Cc1ccccc1)c1c(C)cccc1C [(12.2), benalaxyl-M]
- Efficacy in % found (Plasmopara viticola; application rate 0.2 ppm a.i.): 0%
- Efficacy in % found (Plasmopara viticola; application rate 0.4 ppm a.i.): 0%

Molecule: COCC(=O)N(c1c(C)cccc1C)[C@H](C)C(=O)OC [(12.10), metalaxyl-M]
- Efficacy in % found (Plasmopara viticola; application rate 0.4 ppm a.i.): 57%

Molecule: O=[N+]([O-])c1cc(C(F)(F)F)c(Cl)c([N+](=O)[O-])c1Nc1ncc(C(F)(F)F)cc1Cl [(14.2), fluazinam]
- Efficacy in % found (Phytophthora infestans; application rate 0.5 ppm a.i.): 0%

Molecule: CCCCCCCCc1c(CC)nc2ncnn2c1N [(15.1), ametoctradin]
- Efficacy in % found (Phytophthora infestans; application rate 0.5 ppm a.i.): 0%

Molecule: CCNC(=O)NC(=O)/C(C#N)=N/OC [(15.7), cymoxanil]
- Efficacy in % found (Phytophthora infestans; application rate 1 ppm a.i.): 0%

Molecule: O=C(NCc1ncc(C(F)(F)F)cc1Cl)c1c(Cl)cccc1Cl [(15.17), fluopicolide]
- Efficacy in % found (Plasmopara viticola; application rate 0.4 ppm a.i.): 43%

Molecule: CCO[PH](=O)O [(15.20), fosetyl-Al]
- Efficacy in % found (Phytophthora infestans; application rate 10 ppm a.i.): 3%

Molecule: C#CCCOC(=O)Nc1cccc(CO/N=C(/c2ccccc2)c2nnnn2C)n1 [(15.96), but-3-yn-1-yl {6-[({[(Z)-(1-methyl-1H-tetrazol-5-yl)(phenyl)methylene]amino}oxy)methyl]pyridin-2-yl}carbamate]
- Efficacy in % found (Phytophthora infestans; application rate 0.2 ppm a.i.): 53%
- Efficacy in % found (Plasmopara viticola; application rate 0.4 ppm a.i.): 46%

Molecule: O=C(OCc1c(F)cccc1Cl)c1csc(C2CCN(C(=O)Cn3nc(C(F)F)cc3C(F)F)CC2)n1 [(I-16)]
- Efficacy in % found (Phytophthora infestans; application rate 0.2 ppm a.i.): 70%
- Efficacy in % found (Phytophthora infestans; application rate 0.4 ppm a.i.): 61% and 74%
- Efficacy in % found (Plasmopara viticola; application rate 0.2 ppm a.i.): 29%
- Efficacy in % found (Plasmopara viticola; application rate 0.4 ppm a.i.): 0%
- Efficacy in % found (Alternaria solani; application rate 25 ppm a.i.): 30%
- Efficacy in % found (Alternaria solani; application rate 200 ppm a.i.): 47%
- Efficacy in % found (Sphaerotheca fuliginea; application rate 25 ppm a.i.): 30%
- Efficacy in % found (Sphaerotheca fuliginea; application rate 50 ppm a.i.): 30%
- Efficacy in % found ([1]; application rate 1000 ppm a.i.): 0%
- Efficacy in % found (Leptosphaeria nodorum; 1000 ppm a.i.): 0%
- Efficacy in % found (Pyrenophora teres; 500 ppm a.i.): 0%
- Efficacy in % found (Pyrenophora teres; 1000 ppm a.i.): 25% and 13%
- Efficacy in % found (Puccinia triticina; 500 ppm a.i.): 13%
- Efficacy in % found (Puccinia triticina; 1000 ppm a.i.): 38%
- Efficacy in % found (Botrytis cinerea; application rate 50 ppm a.i.): 0%
- Efficacy in % found (Botrytis cinerea; application rate 200 ppm a.i.): 0%
- Efficacy in % found (Venturia inaequalis; application rate 200 ppm a.i.): 33%

Molecule: boscalid [(2.3)]
- Efficacy in % found (Puccinia triticina; 250 ppm a.i.): 38%
- Efficacy in % found (Puccinia triticina; 500 ppm a.i.): 56%

Molecule: fenpiclonil [(13.1)]
- Efficacy in % found (Leptosphaeria nodorum; 500 ppm a.i.): 71%
- Efficacy in % found (Pyrenophora teres; 500 ppm a.i.): 88%

Molecule: fludioxonil [(13.2)]
- Efficacy in % found (Leptosphaeria nodorum; 250 ppm a.i.): 43%
- Efficacy in % found (Pyrenophora teres; 125 ppm a.i.): 88%
- Efficacy in % found (Botrytis cinerea; application rate 10 ppm a.i.): 15%

Molecule: mancozeb [(5.19)]
- Efficacy in % found (Alternaria solani; application rate 12.5 ppm a.i.): 18%
- Efficacy in % found (Alternaria solani; application rate 50 ppm a.i.): 76%
- Efficacy in % found (Venturia inaequalis; application rate 12.5 ppm a.i.): 53%

Molecule: phosphorous acid and its salts [(15.62)]
- Efficacy in % found (Phytophthora infestans; application rate 10 ppm a.i.): 19%

Molecule: propiconazole [(1.40)]
- Efficacy in % found (Sphaerotheca fuliginea; application rate 2 ppm a.i.): 78%
- Efficacy in % found (Puccinia triticina; 125 ppm a.i.): 78%

Molecule: propineb [(5.23)]
- Efficacy in % found (Alternaria solani; application rate 50 ppm a.i.): 53%

Molecule: prothioconazole [(1.41)]
- Efficacy in % found (Sphaerotheca fuliginea; application rate 0.5 ppm a.i.): 37%
- Efficacy in % found (Leptosphaeria nodorum; 62.5 ppm a.i.): 43%
- Efficacy in % found (Septoria tritici; 125 ppm a.i.): 86%

Molecule: spiroxamine [(1.46)]
- Efficacy in % found ([1]; application rate 250 ppm a.i.): 94%
- Efficacy in % found (Puccinia triticina; 500 ppm a.i.): 56%

Molecule: tebuconazole [(1.47)]
- Efficacy in % found (Sphaerotheca fuliginea; application rate 4 ppm a.i.): 67%
- Efficacy in % found (Pyrenophora teres; 125 ppm a.i.): 38%
- Efficacy in % found (Venturia inaequalis; application rate 4 ppm a.i.): 43%

Molecule: triadimenol [(1.51)]
- Efficacy in % found (Leptosphaeria nodorum; 250 ppm a.i.): 50% and 43%
